Measurements taken from patent US10280170B2, “Substituted 4,5,6,7-tetrahydro-pyrazolo[1,5-a]pyrazine derivatives and 5,6,7,8-tetrahydro-4H-pyrazolo[1,5-a][1,4]diazepine derivatives as Ros1 inhibitors” (Janssen Pharmaceutica NV, priority 2014, dated 2019).
Read-outs that look alike come from different tables or passages of the source.

How the values were obtained:
[1] = target: T1, Ba/F3 cells containing Ros1 wild-type protein (Homo sapiens, UniProt P08922, cells depend on it, form not given); assay: Ba/F3-Ros1 cell proliferation assay, wild-type Ros1; format: cell-based, murine; details: without IL-3
T1 construct: The background only speaks of 'a number of different unrelated proteins' and names SLC34A2-ROS1 for HCC78 cells
T1 sequence (P08922 whole entry, stated change not applied): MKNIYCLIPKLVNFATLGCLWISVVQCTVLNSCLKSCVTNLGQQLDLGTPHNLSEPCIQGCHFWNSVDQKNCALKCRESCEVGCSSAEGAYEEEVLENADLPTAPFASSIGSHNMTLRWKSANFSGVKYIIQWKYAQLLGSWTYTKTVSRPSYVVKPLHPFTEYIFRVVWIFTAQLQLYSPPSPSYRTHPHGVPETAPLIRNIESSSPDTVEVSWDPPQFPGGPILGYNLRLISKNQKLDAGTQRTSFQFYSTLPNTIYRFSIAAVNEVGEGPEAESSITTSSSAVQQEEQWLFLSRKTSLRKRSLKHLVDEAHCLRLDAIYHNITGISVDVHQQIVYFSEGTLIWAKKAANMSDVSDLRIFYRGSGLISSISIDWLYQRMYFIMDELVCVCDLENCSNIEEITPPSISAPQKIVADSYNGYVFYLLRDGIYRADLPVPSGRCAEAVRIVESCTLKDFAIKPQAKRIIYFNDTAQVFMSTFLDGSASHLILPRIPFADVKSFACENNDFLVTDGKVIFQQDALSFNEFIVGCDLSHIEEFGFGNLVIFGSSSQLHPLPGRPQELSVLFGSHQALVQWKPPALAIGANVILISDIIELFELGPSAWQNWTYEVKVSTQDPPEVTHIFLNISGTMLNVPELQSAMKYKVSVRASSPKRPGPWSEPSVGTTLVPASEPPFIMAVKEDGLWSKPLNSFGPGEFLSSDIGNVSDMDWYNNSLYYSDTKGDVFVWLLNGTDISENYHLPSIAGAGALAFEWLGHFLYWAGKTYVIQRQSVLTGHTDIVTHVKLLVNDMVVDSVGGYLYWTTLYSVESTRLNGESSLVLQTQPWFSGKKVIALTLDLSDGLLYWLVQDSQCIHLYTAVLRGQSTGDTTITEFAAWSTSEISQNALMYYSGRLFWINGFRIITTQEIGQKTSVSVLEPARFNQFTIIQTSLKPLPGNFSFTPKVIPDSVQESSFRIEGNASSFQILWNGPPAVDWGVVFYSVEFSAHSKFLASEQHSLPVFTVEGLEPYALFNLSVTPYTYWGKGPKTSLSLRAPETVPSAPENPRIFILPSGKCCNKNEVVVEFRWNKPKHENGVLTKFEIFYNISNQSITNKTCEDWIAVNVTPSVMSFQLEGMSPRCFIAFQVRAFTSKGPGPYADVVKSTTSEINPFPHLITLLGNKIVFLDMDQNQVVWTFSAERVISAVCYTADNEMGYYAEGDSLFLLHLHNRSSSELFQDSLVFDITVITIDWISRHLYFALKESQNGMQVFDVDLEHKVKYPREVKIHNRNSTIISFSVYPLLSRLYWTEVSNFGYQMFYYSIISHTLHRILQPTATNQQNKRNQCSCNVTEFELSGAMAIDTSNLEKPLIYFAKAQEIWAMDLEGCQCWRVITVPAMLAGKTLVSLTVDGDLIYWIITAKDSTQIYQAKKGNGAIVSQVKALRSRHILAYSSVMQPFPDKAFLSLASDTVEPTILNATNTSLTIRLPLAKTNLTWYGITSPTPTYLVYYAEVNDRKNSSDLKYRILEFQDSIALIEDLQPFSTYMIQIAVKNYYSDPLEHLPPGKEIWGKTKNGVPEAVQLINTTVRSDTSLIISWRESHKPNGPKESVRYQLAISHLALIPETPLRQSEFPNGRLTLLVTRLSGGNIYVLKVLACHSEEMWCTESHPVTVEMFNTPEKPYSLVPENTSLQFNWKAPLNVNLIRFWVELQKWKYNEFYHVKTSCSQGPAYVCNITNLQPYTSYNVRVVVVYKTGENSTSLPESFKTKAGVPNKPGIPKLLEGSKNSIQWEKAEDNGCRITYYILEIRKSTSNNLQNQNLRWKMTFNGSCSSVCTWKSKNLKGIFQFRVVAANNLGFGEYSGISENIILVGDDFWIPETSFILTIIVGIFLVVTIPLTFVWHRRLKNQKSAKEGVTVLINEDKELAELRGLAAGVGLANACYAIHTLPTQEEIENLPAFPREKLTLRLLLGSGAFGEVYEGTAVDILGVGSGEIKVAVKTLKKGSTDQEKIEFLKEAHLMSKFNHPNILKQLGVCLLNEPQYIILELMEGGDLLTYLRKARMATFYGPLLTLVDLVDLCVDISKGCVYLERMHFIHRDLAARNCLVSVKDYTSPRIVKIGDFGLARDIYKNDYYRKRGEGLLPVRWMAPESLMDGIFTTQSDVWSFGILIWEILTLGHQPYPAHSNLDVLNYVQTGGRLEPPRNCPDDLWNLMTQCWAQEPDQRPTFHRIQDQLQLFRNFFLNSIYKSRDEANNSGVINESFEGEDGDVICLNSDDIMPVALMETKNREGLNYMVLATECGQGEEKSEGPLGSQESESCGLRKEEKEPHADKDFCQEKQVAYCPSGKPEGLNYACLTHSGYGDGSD
Procedure, shortened: (§1)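 Ba/F3 cells expressing wild-type, L2026M or G2032R Ros1 (20000 per well) were incubated with DMSO-solubilized compounds in phenol red-free RPMI-1640 with 10% FBS and 2 mM L-glutamine at 37 °C, 5% CO2 for 24 hours. Viability was then read by Alamar Blue fluorescence (ex 540/em 590 nm) after 4 h.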

Ros1 enzyme = target: T2, Ros1 enzyme (Homo sapiens, UniProt P08922); assay: Ros1 enzymatic assay; format: biochemical
T2 construct: 0.5 μg/ml Ros1 enzyme
T2 sequence (P08922 28-2347): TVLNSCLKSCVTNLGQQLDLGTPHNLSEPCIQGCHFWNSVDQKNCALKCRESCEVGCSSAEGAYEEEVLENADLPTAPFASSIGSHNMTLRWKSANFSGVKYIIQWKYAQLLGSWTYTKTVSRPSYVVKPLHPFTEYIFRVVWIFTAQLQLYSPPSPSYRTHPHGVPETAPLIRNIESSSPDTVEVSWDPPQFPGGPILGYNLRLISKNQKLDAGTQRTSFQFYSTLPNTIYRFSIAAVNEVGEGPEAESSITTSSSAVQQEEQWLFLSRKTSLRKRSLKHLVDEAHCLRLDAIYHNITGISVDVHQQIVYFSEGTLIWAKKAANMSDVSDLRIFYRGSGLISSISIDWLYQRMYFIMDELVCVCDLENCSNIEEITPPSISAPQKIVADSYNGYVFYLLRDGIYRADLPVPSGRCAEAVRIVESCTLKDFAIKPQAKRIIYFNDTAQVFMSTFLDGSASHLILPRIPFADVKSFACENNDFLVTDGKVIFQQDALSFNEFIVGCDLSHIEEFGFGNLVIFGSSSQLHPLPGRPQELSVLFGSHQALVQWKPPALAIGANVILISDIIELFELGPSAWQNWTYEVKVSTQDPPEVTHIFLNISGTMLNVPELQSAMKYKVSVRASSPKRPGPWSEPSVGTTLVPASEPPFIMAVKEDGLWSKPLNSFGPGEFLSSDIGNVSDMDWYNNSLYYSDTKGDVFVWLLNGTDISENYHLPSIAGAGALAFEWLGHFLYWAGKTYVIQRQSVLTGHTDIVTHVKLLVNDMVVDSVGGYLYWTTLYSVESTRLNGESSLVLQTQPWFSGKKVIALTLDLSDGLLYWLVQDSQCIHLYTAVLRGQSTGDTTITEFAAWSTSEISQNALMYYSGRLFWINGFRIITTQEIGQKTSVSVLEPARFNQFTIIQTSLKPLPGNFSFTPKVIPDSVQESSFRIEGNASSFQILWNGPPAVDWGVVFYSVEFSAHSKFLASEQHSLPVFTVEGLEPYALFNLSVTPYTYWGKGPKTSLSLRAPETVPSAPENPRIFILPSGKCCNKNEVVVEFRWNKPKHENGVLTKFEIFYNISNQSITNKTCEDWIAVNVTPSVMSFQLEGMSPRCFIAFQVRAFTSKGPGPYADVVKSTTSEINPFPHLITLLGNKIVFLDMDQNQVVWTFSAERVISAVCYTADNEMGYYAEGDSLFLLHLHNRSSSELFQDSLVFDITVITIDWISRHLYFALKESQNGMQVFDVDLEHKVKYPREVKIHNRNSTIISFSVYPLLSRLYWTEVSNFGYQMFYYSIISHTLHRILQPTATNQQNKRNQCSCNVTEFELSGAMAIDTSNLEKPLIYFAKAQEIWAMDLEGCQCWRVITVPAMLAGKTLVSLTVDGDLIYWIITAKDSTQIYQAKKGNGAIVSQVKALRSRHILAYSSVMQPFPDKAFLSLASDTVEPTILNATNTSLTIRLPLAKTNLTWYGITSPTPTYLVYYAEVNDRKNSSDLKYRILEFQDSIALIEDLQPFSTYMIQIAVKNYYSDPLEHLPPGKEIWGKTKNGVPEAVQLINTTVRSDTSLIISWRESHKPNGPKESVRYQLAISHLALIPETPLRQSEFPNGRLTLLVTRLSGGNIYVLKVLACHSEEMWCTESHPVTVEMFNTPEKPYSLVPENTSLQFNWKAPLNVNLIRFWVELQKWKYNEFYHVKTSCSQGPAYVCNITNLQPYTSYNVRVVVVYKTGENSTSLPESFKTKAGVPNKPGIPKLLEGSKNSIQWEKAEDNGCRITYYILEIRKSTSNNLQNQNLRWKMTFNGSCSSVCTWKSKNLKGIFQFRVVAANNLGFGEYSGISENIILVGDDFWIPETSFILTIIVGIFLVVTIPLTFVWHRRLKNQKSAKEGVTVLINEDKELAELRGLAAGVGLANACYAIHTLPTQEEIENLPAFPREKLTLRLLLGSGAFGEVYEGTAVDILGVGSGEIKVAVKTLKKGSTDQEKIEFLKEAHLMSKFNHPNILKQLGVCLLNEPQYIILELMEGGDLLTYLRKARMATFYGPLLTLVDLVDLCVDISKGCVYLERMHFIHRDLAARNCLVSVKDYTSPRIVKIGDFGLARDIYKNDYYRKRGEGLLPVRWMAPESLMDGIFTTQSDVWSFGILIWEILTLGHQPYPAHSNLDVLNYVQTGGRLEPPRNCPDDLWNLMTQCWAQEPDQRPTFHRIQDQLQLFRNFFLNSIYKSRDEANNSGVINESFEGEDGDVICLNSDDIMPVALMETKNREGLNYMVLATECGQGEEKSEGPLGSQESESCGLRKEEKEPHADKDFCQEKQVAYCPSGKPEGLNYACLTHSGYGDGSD
Procedure, shortened: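 Radiometric proximity read-out: 33P incorporated into IRS-Tide captured on streptavidin imaging beads and imaged on LEADseeker. Phosphorylation ran 120 min at RT with 20 μM ATP (substrate-mix level) in Tris pH7.5/MgCl2/EGTA/Tween buffer; EDTA stop.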

[2] = test system: HCC78 non-small cell lung cancer cells; assay: HCC78 cell proliferation assay; format: cell-based; details: for EC50: Homo sapiens, HCC78, 96 h, read-out: HCC-78 PROL pEC50 (converted)
Procedure, shortened: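 HCC78 NSCLC cells (~1000/well) in RPMI-1640 with 10% FBS were treated 24 h after seeding and exposed to compound for 4 days at 37 °C. Viability was read by MTT, with absorbance at 538 nm after DMSO/glycine solubilization.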

[3] = test system: Ba/F3 cells containing Ros1 wild-type protein + IL-3; assay: Ba/F3-Ros1 cell proliferation counter-screen, wild-type protein in the presence of 10 ng/ml murine IL-3; format: cell-based; details: Mus musculus, BaF3, 24 h, read-out: BaF3-ROS1 + IL3 pIC50 (converted)
Procedure, shortened: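 IL-3 rescue counter-screen: WT Ros1 Ba/F3, 10 ng/ml mIL-3, 24 h compound exposure, 37 °C/5% CO2; Alamar Blue added 4 h, RFU ex540/em590.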

[4] = target: Ba/F3 cells containing Ros1 with a mutation at the gatekeeper residue (L2026M) (Homo sapiens, UniProt P08922, L2026M, cells depend on it, form not given); assay: Ba/F3-Ros1 cell proliferation assay, L2026M gatekeeper mutant; format: cell-based, murine; details: without IL-3
Sequence of Ba/F3 cells containing Ros1 with a mutation at the gatekeeper residue (L2026M) (P08922 whole entry L2026M, form open): as the sequence (P08922 whole entry, stated change not applied) above, with L2026M counted along it
Procedure, shortened: as §1

[5] = Ros1 enzymatic assay, read-out: ROS1 pIC50 (converted)
[6] = counter-screen, wild-type, 10 ng/ml murine IL-3

Row | SMILES | melting point | BaF3-ROS1-IL3 pIC50 [1] | IC50 (Ros1 enzyme; [5]) | HCC-78 PROL pEC50 ([2]; HCC78 cells, 4 days, MTT) | CC50 [3, 6] | Ba/F3 Ros1 L2026M (-IL-3) pIC50 [4] | EC50 [2] | CC50 [3] | IC50 (Ros1 enzyme; ROS1 pIC50, Ros1 enzymatic assay) | EC50 ([2]; HCC78 cells, 4 days, MTT)
1 | CC(C)c1ccc(COc2ccc(-c3c(-c4ccncc4)nn4c3C(=O)N(CC(O)CO)CC4)cc2)cc1 (stereo not drawn) [Compound 43] | 190 °C | 7.4 | 0.0501 µM | 6.9 | > 10 µM | 7.3 | – | – | – | –
2 | CC(C)OCC(O)CN1CCn2nc(-c3ccncc3)c(-c3ccc(OCc4ccc(C(C)C)cc4)cc3)c2C1=O (stereo not drawn) [Compound 45] | 148 °C | 6.7 | 0.158 µM | – | – | 6.6 | 1.26 µM | > 10 µM | – | –
3 | COCCN1CCn2nc(-c3ccncc3)c(-c3ccc(OCc4ccc(C(C)C)cc4)cc3)c2C1=O [Compound 50] | 167 °C | 7.1 | 0.0501 µM | – | – | 7.2 | 0.158 µM | > 10 µM | – | –
4 | CC(C)c1ccc(COc2ccc(-c3c(-c4ccncc4)nn4c3C(=O)N(CCS(C)(=O)=O)CC4)cc2)cc1 [Compound 52] | 219 °C | 7.6 | 0.0501 µM | – | – | 6.9 | 0.251 µM | > 10 µM | – | –
5 | CC(C)c1ccc(COc2ccc(-c3c(-c4ccncc4)nn4c3C(=O)N(CC3CCCO3)CC4)cc2)cc1 (stereo not drawn) [Compound 55] | 165 °C | 7.0 | 0.126 µM | – | – | 6.8 | 0.794 µM | > 10 µM | – | –
6 | CC(C)c1ccc(COc2ccc(-c3c(-c4ccncc4)nn4c3C(=O)N(CC(=O)N(C)C)CC4)cc2)cc1 [Compound 64] | 199 °C | 7.1 | 0.0794 µM | – | – | 6.6 | 0.631 µM | > 10 µM | – | –
7 | CC(C)NC(=O)CN1CCn2nc(-c3ccncc3)c(-c3ccc(OCc4ccc(C(C)C)cc4)cc3)c2C1=O [Compound 65] | 159 °C | 7.2 | 0.1 µM | – | – | 6.7 | 0.316 µM | > 10 µM | – | –
8 | CCOP(=O)(CCN1CCn2nc(-c3ccncc3)c(-c3ccc(OCc4ccc(C(C)C)cc4)cc3)c2C1=O)OCC [Compound 68] | 90 °C | 6.7 | – | – | – | 6.5 | 2.51 µM | 2.51 µM | 0.316 µM | –
9 | COc1cc(-c2c(-c3ccncc3)nn3c2C(=O)NCC3)ncc1OCc1ccc(C(C)C)cc1 [Compound 72] | 231 °C | 7.2 | 0.0631 µM | – | – | 6.0 | 0.251 µM | > 10 µM | – | –
10 | CC(C)c1ccc(COc2cc(F)c(-c3c(-c4ccncc4)nn4c3C(=O)NCC4)cn2)cc1 [Compound 73] | 207 °C | 7.9 | 0.0158 µM | – | – | 7.4 | 0.126 µM | > 10 µM | – | –
11 | CC(C)c1ccc(COc2ccc(-c3c(-c4ccncc4)nn4c3C(=O)NCC4)c(F)n2)cc1 [Compound 74] | 275 °C | 8.1 | 0.0158 µM | – | – | 7.5 | 0.0126 µM | > 10 µM | – | –
12 | CC(C)c1ccc(COc2ncc(-c3c(-c4ccncc4)nn4c3C(=O)NCC4)cn2)cc1 [Compound 75] | 126 °C | 7.9 | 0.0126 µM | – | – | 7.5 | 0.0631 µM | > 10 µM | – | –
13 | CC(C)c1ccc(COc2cnc(-c3c(-c4ccncc4)nn4c3C(=O)NCC4)cn2)cc1 [Compound 76] | 225 °C | 6.8 | 0.251 µM | – | – | 7.0 | 0.794 µM | > 10 µM | – | –
14 | Cc1cc(C(C)C)ccc1COc1ccc(-c2c(-c3ccncc3)nn3c2C(=O)NCC3)cc1 [Compound 78] | 247 °C | 7.1 | 0.251 µM | – | > 10 µM | 6.9 | – | – | – | 0.794 µM
15 | CC(C)c1ccc(COc2ccc(-c3c(-c4ccncc4)nn4c3C(=O)N(CCO)CC4)cc2)cc1O [Compound 79] | 236 °C | 7.8 | 0.0251 µM | – | – | 7.3 | 2.51 µM | > 10 µM | – | –
16 | CC(C)c1ccc(COc2ccc(-c3c(-c4ccncc4)nn4c3C(=O)N(CCO)CC4)cc2)cn1 [Compound 81] | 93 °C | 7.3 | 0.0631 µM | – | – | 6.5 | 0.158 µM | > 10 µM | – | –
17 | CC(C)c1ccc(COc2ccc(-c3c(-c4ccncc4)nn4c3C(=O)NCC4)cc2)cc1C#N [Compound 85] | 240 °C | 7.4 | 0.0398 µM | – | > 10 µM | 7.1 | – | – | – | 0.316 µM
18 | CC(C)c1ccc(COc2ccc(-c3c(-c4ccncc4)nn4c3C(=O)N(CCO)CC4)cc2)cc1C#N [Compound 87] | 160 °C | 7.3 | 0.0398 µM | – | – | 7.2 | 0.2 µM | > 10 µM | – | –
19 | CC(C)c1ccc(COc2ccc(-c3c(-c4ccncc4)nn4c3C(=O)NCC4)cc2)cc1CCN [Compound 88] | 181 °C | 7.1 | 0.0126 µM | – | > 10 µM | 6.8 | – | – | – | 0.0794 µM
20 | COCCOc1cc(COc2ccc(-c3c(-c4ccncc4)nn4c3C(=O)NCC4)cc2)ccc1C(C)C [Compound 90] | 209 °C | 7.2 | 0.0794 µM | – | – | 7.4 | 0.158 µM | > 10 µM | – | –
21 | CC(C)c1ccc(COc2ccc(-c3c(-c4ccncc4)nn4c3C(=O)N(CCO)CC4)cc2)c(F)c1 [Compound 92] | 132 °C | 7.2 | 0.0501 µM | – | – | 6.7 | 0.2 µM | > 10 µM | – | –
22 | CC(C)c1ccc(COc2ccc(-c3c(-c4ccncc4)nn4c3C(=O)N(CCO)CC4)cc2)cc1F [Compound 93] | 183 °C | 7.2 | 0.0794 µM | – | – | 7.0 | 0.398 µM | > 10 µM | – | –
23 | CC(C)c1cc(F)c(COc2ccc(-c3c(-c4ccncc4)nn4c3C(=O)N(CCO)CC4)cc2)c(F)c1 [Compound 94] | 194 °C | 7.0 | 0.1 µM | – | – | 6.6 | 0.398 µM | > 10 µM | – | –
24 | CC(C)c1cc(F)c(COc2ccc(-c3c(-c4ccncc4)nn4c3C(=O)N(CC(O)CO)CC4)cc2)cc1F (stereo not drawn) [Compound 98] | 184 °C | 6.8 | 0.251 µM | 6.5 | > 10 µM | 6.6 | – | – | – | –
25 | Cc1ccc(COc2ccc(-c3c(-c4ccncc4)nn4c3C(=O)NCC4)cc2)cc1 [Compound 105] | 259 °C | 7.0 | 0.126 µM | – | – | 6.6 | 0.158 µM | > 10 µM | – | –
26 | CCC(C)c1ccc(COc2ccc(-c3c(-c4ccncc4)nn4c3C(=O)N(CCO)CC4)cc2)cc1 (stereo not drawn) [Compound 107] | 163 °C | 7.7 | 0.02 µM | – | – | 7.4 | 0.0794 µM | > 10 µM | – | –
27 | CC(C)Cc1ccc(COc2ccc(-c3c(-c4ccncc4)nn4c3C(=O)N(CCO)CC4)cc2)cc1 [Compound 109] | 155 °C | 7.1 | 0.1 µM | – | – | 7.2 | 0.398 µM | > 10 µM | – | –
28 | CC(C)(O)c1ccc(COc2ccc(-c3c(-c4ccncc4)nn4c3C(=O)N(CCO)CC4)cc2)cc1 [Compound 115] | 193 °C | 6.3 | 1.26 µM | – | – | <5 | 1.58 µM | > 10 µM | – | –
